Values quoted from earlier work, collected in US20230240292A1, “METHOD FOR GROWING PLANTS” (Taminco BV, priority 2020, published 2023).
Like-named read-outs stand apart in the source and are kept apart here.

Key:
cauliflower seedlings = settings: seedlings treated with 20 mM BABA

Root growth repression (in words) (Tomato plants; seedlings treated with as low as 0.5 mM BABA) | Reduction in growth of cauliflower seedlings (cauliflower seedlings) [%] | Root growth repression (in words) (Tomato plants; seedlings treated with as low as 0.25 mM JA) | SMILES
root growth repression was observed | 14.7 | – | CC(N)CC(=O)O (racemic) [BABA, beta-aminobutyric acid]
– | – | root growth repression was observed | CC/C=C\C[C@H]1C(=O)CC[C@@H]1CC(=O)O [JA, jasmonic acid]
